Biological target: T1, wild-type HIV-1 protease (Human immunodeficiency virus type 1 group M subtype B, UniProt P04585)
T1 construct: Escherichia coli expressed wild-type HIV-1 protease protein; made in house; host or cells: Escherichia coli
Experiment: Assay for Inhibition of Microbial Expressed HIV Protease
Format: biochemical
Conditions: Escherichia coli expressed wild-type HIV-1 protease, peptide substrate cleavage; mean of at least two independent experiments
Description: Inhibition of Escherichia coli expressed wild-type HIV-1 protease protein was carried out with a peptide substrate [Val-Ser-Gln-Asn-Wnaphtyl)Ala-Pro-Ile-Val]. The inhibitor compound was preincubated with HIV-1 protease enzyme in assay buffer (50 mM sodium acetate, pH 5.5, 100 mM NaCl, and 0.1% BSA) for 30 minutes at room temperature. Peptide substrate was added to 400 μM in a total volume of 20 μL containing 20 pM HIV-1 protease (final) after which the reaction was incubated for 1 hour at 30° C. The reaction was quenched by the addition of formic acid and HIV protease inhibitor indinavir to 0.012% and 150 nM final concentrations, respectively. Product formation was determined after separation of product and substrate on a ZORBAX Eclipse XDB-C18 column (Aligent Technologies, Santa Clara, Calif., USA) connected to an API 4000™ mass spectrometer (AB Sciex, Pte. Ltd., Concord Ontario, Canada) with multiple reaction monitoring (transitions were 644.5/428.9 and 615.4/422.2 (M1/M3) for product and indinavir respectively). The extent of inhibition of the reaction was determined from the peak area of the products. Analysis of the products, independently synthesized, provided quantitation standards and confirmation of the product composition. […] Ic50's refer to the 50% inhibition of the cleavage of a peptide substrate by hiv protease.
Data shown in the table reflects the mean of at least two independent experiments.

| Structure (SMILES) | IC50 [nM] |
| --- | --- |
| CN(Cc1ccccc1S(C)(=O)=O)C(=O)c1cccc(CN2C(=N)NC(c3ccccc3)(c3ccccc3)C2=O)c1 [Example 23, 3-[(2-imino-5-oxo-4,4-diphenylimidazolidin-1-yl)methyl]-N-methyl-N-[2-(methylsulfonyl)-benzyl]benzamide] | 12.9 |
| CC(C)CCC1(c2ccccc2)NC(=N)N(Cc2cccc(C(=O)N(C)[C@H](C)c3ccc(F)cc3)c2)C1=O (stereo partly drawn) [Example 24, N-[(1R)-1-(4-fluorophenyl)ethyl]-3-{[2-imino-4-(3-methylbutyl)-5-oxo-4-phenylimidazolidin-1-yl]methyl}-N-methylbenzamide] | 13.2 |
| CC(C)CC1(c2ccccc2)NC(=N)N(Cc2cccc(C(=O)N(C)Cc3ccc(Cl)cc3)c2)C1=O (centres unmarked) [Example 25, N-(4-chlorobenzyl)-3-{[2-imino-4-(2-methylpropyl)-5-oxo-4-phenylimidazolidin-1-yl]methyl}-N-methylbenzamide] | 13.8 |
| CC(C)CCC1(c2ccccc2)NC(=N)N(Cc2cccc(C(=O)N(C)Cc3ccc(Cl)cc3)c2)C1=O (centres unmarked) [Example 26, N-(4-chlorobenzyl)-3-{[2-imino-4-(3-methylbutyl)-5-oxo-4-phenylimidazolidin-1-yl]methyl}-N-methylbenzamide] | 13.9 |
| CCCC1(c2ccccc2)NC(=N)N(Cc2cccc(C(=O)N(C)Cc3ccc(Cl)cc3)c2)C1=O (centres unmarked) [Example 27, N-(4-chlorobenzyl)-3-[(2-imino-5-oxo-4-phenyl-4-propylimidazolidin-1-yl)methyl]-N-methylbenzamide] | 16.9 |
| CN(Cc1ccc(F)cc1)C(=O)c1cccc(CN2C(=N)NC(c3ccc(F)cc3)(c3ccc(F)cc3)C2=O)c1 [Example 28, 3-{[4,4-bis(4-fluorophenyl)-2-imino-5-oxoimidazolidin-1-yl]methyl}-N-(4-fluorobenzyl)-N-methylbenzamide] | 17.4 |
| CC(C)CCC1(c2ccccc2)NC(=N)N(Cc2cccc(C(=O)N(C)Cc3ccccc3S(C)(=O)=O)c2)C1=O (centres unmarked) [Example 29, 3-{[2-imino-4-(3-methylbutyl)-5-oxo-4-phenylimidazolidin-1-yl]methyl}-N-methyl-N-[2-(methylsulfonyl)-benzyl]benzamide] | 17.8 |
| CN(Cc1ccc(Cl)cc1)C(=O)c1cccc(CN2C(=N)NC(c3ccc(F)cc3)(c3ccc(F)cc3)C2=O)c1 [Example 30, 3-{[4,4-bis(4-fluorophenyl)-2-imino-5-oxoimidazolidin-1-yl]methyl}-N-(4-chlorobenzyl)-N-methylbenzamide] | 17.9 |
| CC(C)CCC1(c2cccc(-c3cccnc3)c2)NC(=N)N(Cc2cccc(C(=O)N(C)Cc3ccc(C#N)cc3)c2)C1=O (centres unmarked) [Example 31, N-(4-cyanobenzyl)-3-{[2-imino-4-(3-methylbutyl)-5-oxo-4-(3-pyridin-3-ylphenyl)imidazolidin-1-yl]methyl}-N-methylbenzamide] | 19 |
| CN(Cc1ccc(F)cc1)C(=O)c1cccc(CN2C(=N)NC(c3ccccc3)(c3ccccc3)C2=O)c1 [Example 32, N-(4-fluorobenzyl)-3-[(2-imino-5-oxo-4,4-diphenylimidazolidin-1-yl)methyl]-N-methylbenzamide] | 19.3 |
| CC(C)C[C@]1(c2ccccc2)NC(=N)N([C@H](C)c2cccc(C(=O)N(C)Cc3ccc(F)cc3)c2)C1=O [Example 33, N-(4-fluorobenzyl)-3-((R)-1-((R)-2-imino-4-isobutyl-5-oxo-4-phenylimidazolidin-1-yl)ethyl)-N-methylbenzamide] | 19.8 |
| CN(C)C(=O)c1cccc(C2(c3ccc(F)cc3)NC(=N)N(Cc3cccc(C(=O)N(C)Cc4ccc(Cl)cc4)c3)C2=O)c1 (centres unmarked) [Example 34, 3-[1-{3-[(4-chlorobenzyl)(methyl)-carbamoyl]benzyl}-4-(4-fluorophenyl)-2-imino-5-oxoimidazolidin-4-yl]-N,N-dimethylbenzamide] | 19.9 |
| CC(C)CCC1(c2ccc(F)cc2)NC(=N)N(Cc2cccc(C(=O)N(C)Cc3ccc(C#N)cc3)c2)C1=O (centres unmarked) [Example 35, N-(4-cyanobenzyl)-3-{[4-(4-fluorophenyl)-2-imino-4-(3-methylbutyl)-5-oxoimidazolidin-1-yl]methyl}-N-methylbenzamide] | 20.5 |
| CN(Cc1ccc(Cl)cc1)C(=O)c1cccc(CN2C(=N)NC(c3ccccc3)(c3ccccc3)C2=O)c1 [Example 36, N-(4-chlorobenzyl)-3-[(2-imino-5-oxo-4,4-diphenylimidazolidin-1-yl)methyl]-N-methylbenzamide] | 21.7 |
| CN(Cc1ccc(Cl)cc1)C(=O)c1cccc(CN2C(=N)NC(c3ccc(F)cc3)(c3cccc(C#N)c3)C2=O)c1 (centres unmarked) [Example 37, N-(4-chlorobenzyl)-3-{[4-(3-cyanophenyl)-4-(4-fluorophenyl)-2-imino-5-oxoimidazolidin-1-yl]methyl}-N-methylbenzamide] | 23.5 |
| CN(Cc1ccnc(Cl)c1)C(=O)c1cccc(CN2C(=N)NC(c3ccc(F)cc3)(c3ccc(F)cc3)C2=O)c1 [Example 38, 3-{[4,4-bis(4-fluorophenyl)-2-imino-5-oxoimidazolidin-1-yl]methyl}-N-[(2-chloropyridin-4-yl)methyl]-N-methylbenzamide] | 23.8 |
| CN(Cc1ccc(Cl)cc1)C(=O)c1cccc(CN2C(=N)NC(c3ccc(F)cc3)(c3ccccn3)C2=O)c1 (centres unmarked) [Example 39, N-(4-chlorobenzyl)-3-{[4-(4-fluorophenyl)-2-imino-5-oxo-4-pyridin-2-ylimidazolidin-1-yl]methyl}-N-methylbenzamide] | 24.8 |
| CN(Cc1ccc(Cl)cc1)C(=O)c1cccc(CN2C(=N)NC(c3ccc(F)cc3)(c3cccc(Br)c3)C2=O)c1 (centres unmarked) [Example 40, 3-{[4-(3-bromophenyl)-4-(4-fluorophenyl)-2-imino-5-oxoimidazolidin-1-yl]methyl}-N-(4-chlorobenzyl)-N-methylbenzamide] | 25.9 |
| C[C@H](c1ccc(Cl)cc1)N(C)C(=O)c1cccc(CN2C(=N)NC(c3ccc(F)cc3)(c3ccc(F)cc3)C2=O)c1 [Example 41, 3-{[4,4-bis(4-fluorophenyl)-2-imino-5-oxoimidazolidin-1-yl]methyl}-N-[(1R)-1-(4-chlorophenyl)ethyl]-N-methylbenzamide] | 26.5 |
| CCN(Cc1ccc(F)cc1)C(=O)c1cccc(CN2C(=N)NC(c3ccc(F)cc3)(c3ccc(F)cc3)C2=O)c1 [Example 42, 3-{[4,4-bis(4-fluorophenyl)-2-imino-5-oxoimidazolidin-1-yl]methyl}-N-ethyl-N-(4-fluorobenzyl)benzamide] | 28.6 |
| CCCC1(c2ccccc2)NC(=N)N(Cc2cccc(C(=O)N(C)Cc3ccc(F)cc3)c2)C1=O (centres unmarked) [Example 43, N-(4-fluorobenzyl)-3-[(2-imino-5-oxo-4-phenyl-4-propylimidazolidin-1-yl)methyl]-N-methylbenzamide] | 28.7 |
| C[C@H](c1ccc(F)cc1)N(C)C(=O)c1cccc(CN2C(=N)NC(c3ccc(F)cc3)(c3ccc(F)cc3)C2=O)c1 [Example 44, 3-{[4,4-bis(4-fluorophenyl)-2-imino-5-oxoimidazolidin-1-yl]methyl}-N-[(1R)-1-(4-fluorophenyl)ethyl]-N-methylbenzamide] | 29.2 |
| CN(C)C(=O)c1cccc(CN2C(=N)NC(c3ccccc3)(c3ccc(-c4ccccc4)cc3)C2=O)c1 (centres unmarked) [Example 45, 3-[(4-biphenyl-4-yl-2-imino-5-oxo-4-phenylimidazolidin-1-yl)methyl]-N,N-dimethylbenzamide] | 30.3 |
| CN(Cc1ccccc1C(F)(F)F)C(=O)c1cccc(CN2C(=N)NC(c3ccc(F)cc3)(c3ccc(F)cc3)C2=O)c1 [Example 46, 3-{[4,4-bis(4-fluorophenyl)-2-imino-5-oxoimidazolidin-1-yl]methyl}-N-methyl-N-[2-(trifluoromethyl)-benzyl]benzamide] | 31.1 |
| CCCC1(c2ccccc2)NC(=N)N(Cc2cccc(C(=O)N(C)Cc3ccc(Cl)cn3)c2)C1=O (centres unmarked) [Example 47, N-[(5-chloropyridin-2-yl)methyl]-3-[(2-imino-5-oxo-4-phenyl-4-propylimidazolidin-1-yl)methyl]-N-methylbenzamide] | 33.3 |
| C[C@H](c1ccccc1)N(C)C(=O)c1cccc(CN2C(=N)NC(c3ccccc3)(c3ccccc3)C2=O)c1 [Example 48, 3-[(2-imino-5-oxo-4,4-diphenylimidazolidin-1-yl)methyl]-N-methyl-N-[(1R)-1-phenylethyl]benzamide] | 39.6 |
| CC(C)CCC1(c2cccc(F)c2)NC(=N)N(Cc2cccc(C(=O)N(C)Cc3ccc(Cl)cc3)c2)C1=O (centres unmarked) [Example 49, N-(4-chlorobenzyl)-3-{[4-(3-fluorophenyl)-2-imino-4-(3-methylbutyl)-5-oxoimidazolidin-1-yl]methyl}-N-methylbenzamide] | 43.5 |
| [2H]C([2H])([2H])N(C(=O)c1cccc(CN2C(=N)NC(c3ccc(F)cc3)(c3ccc(F)cc3)C2=O)c1)[C@H](C)c1ccc(F)cc1 [Example 50, 3-{[4,4-bis(4-fluorophenyl)-2-imino-5-oxoimidazolidin-1-yl]methyl}-N-[(1R)-1-(4-fluorophenyl)ethyl]-N(~2~H_3_)methylbenzamide] | 45.1 |
| CN(C)C(=O)c1cccc(CN2C(=N)NC(c3ccccc3)(c3cccc(-c4cccc(C#N)c4)c3)C2=O)c1 (centres unmarked) [Example 51, 3-{[4-(3'-cyanobiphenyl-3-yl)-2-imino-5-oxo-4-phenylimidazolidin-1-yl]methyl}-N,N-dimethylbenzamide] | 45.5 |

Reference: patent US20200261421A1, “HETEROCYCLIC COMPOUNDS AS HIV PROTEASE INHIBITORS” (Merck Sharp & Dohme Corp., priority 2016, published 2020)
